Experimental findings from US20240261274A1, “TREATMENT OF MYC-DRIVEN CANCERS WITH GSPT1 DEGRADERS” (MONTE ROSA THERAPEUTICS, INC., priority 2021, published 2024) are described below.

Experiment [1] has as its system NSCLC patient derived xenografts. Description: Patient derived NSCLC xenograft models (PDX), tumor progression free probability. The experiment is classed as in vivo, immunodeficient mice. Particulars: high L-Myc or N-Myc expressing PDX models, oral 10 mg/kg daily, progression >800 mm^3. On the procedure: Patient derived NSCLC xenograft models (PDX) were made using immunodeficient mice. 14 PDXs were made for high L-Myc or N-Myc expressing NSCLC samples and 19 PDXs were made for low L-Myc or N-Myc expressing NSCLC samples. Animals were divided into a treatment group that received an oral dose of 10 mg/kg Compound 345 daily and a vehicle-only control group. […] Data from these experiments are shown in FIG. 14A (high L-Myc or high N-Myc expressing) and FIG. 14B (low L-Myc or low N-Myc expressing). Tumor progression free probability was plotted over time, with a threshold of tumor progression set at greater than 800 mm^3.
We used log 2FPKM cutoff of 1.5 and 3.4 for N-Myc and L-Myc expression respectively. PDX tumor fragments (2-3 mm in diameter) were inoculated subcutaneously at the upper right dorsal flank of 6-8 weeks old female BALB7c or NODS/CID nude mice. […] Mice were PO dosed with vehicle or Compound 345 at 10 mg/kg daily and tumor volumes recorded at least twice a week. […] For each mouse, we calculated the first day the tumor volume reached 800 mm3 as the endpoint. […] Kaplan-Meier curves were generated in R (ver 4.0.2, survminer package) and log-rank (Mantel-Cox) test P-values were calculated using R (ver 4.0.2, survival package) to assess the differences in survival curves between the Compound 345-treated and vehicle treated samples. […]
Background: Xenograft models place foreign cells or tissue in a host animal.

For the next experiment, the system named is N-Myc. The experiment is described as follows: N-Myc total protein levels in NSCLC lines after Compound 345 (western blot). The experiment is classed as cell-based. The following applies: NSCLC cancer lines; N-Myc not detectable in NCI-H2023. The protocol: NCI-H1155 and NCI-H2023 were taken as representative of N-Myc high and low NSCLC. 12A: western blot analysis probing for GSPT1 and N-Myc following treatment with Compound 345 (as indicated). Tubulin was used as a loading control. N-Myc could not be detected by western blotting in the NCI-H2023 line. 12B: Single-sample gene set enrichment analysis (ssGSEA) results for a Myc target gene set at 6 hours (left) and 24 hours (right) after treatment. ssGSEA scores were normalized to DMSOs for each cell line and averaged for three replicates. Error bars denote+/−1 s.d. across replicates.
(In general: In western blotting, separated proteins are transferred to a membrane and probed.)

The next experiment concerns Myc target genes. Description: RNAseq ssGSEA of Myc target genes in NCI-H1155 and NCI-H2023. Format: cell-based. Particulars: high N-Myc expressing cells, 0.1 μM and 1 μM. The protocol: A High N-Myc expressing NSCLC cell lines ([…]) and a low N-Myc expressing NSCLC cell lines (NCI-H2023) were treated with Compound 345 in culture. Cells were treated with increasing concentrations of the compound (0.0; 0.03; 0.3; 3 μM), cells were withdrawn from the culture at time points of 0, 2, and 6 hours, lysates were prepared, SDS-PAGE and immunoblotting was performed, and transfer membranes were probed for GSPT1, N-Myc, and Tubulin as a loading control (N-Myc was not probed in the NCI-2023 experiment). […] For the same cell lines, RNAseq followed by single sample gene set enrichment analysis (ssGSEA) was performed at six hours and 24 hours after treatment with Compound 345. […]
Transcriptomics experiment in NCI-H1155 and NCI-H2023 NSCLC lines: NCI-H1155 and NCI-H2023 were typically seeded in a 6 well plate (0.5×10^6 NCI-H1155 cells/mL; 0.3×10^6 NCI-H2023 cells/mL; 2 ml/well) and incubated overnight. […] Total RNA yields and quality were measured using the DeNovix DS-11 Spectrophotometer. […] Library yields were measured using a QuBit 4 fluorometer ([…], Q33238) and sizes were measured using a Tapestation 4150 (Agilent, G2992AA) and screentape (Agilent, 5067-5562). […] The modulation of Myctarget gene expression upon treatment with MRT-2359 was analyzed in RNAseq profiles of both Myc-driven (NCI-Hi 155) and non-Mycdriven (NCI-H2023) cell lines. […]

Experiment [2] relates to cells with wildtype (WT) cereblon. Description: Viability in cells with wildtype cereblon. The experiment is classed as cell-based. From the text: X-axis axis represents m concentration of compound 8; y-axis represents viability normalized to DMSO.

As for `O=C1CCC(N2Cc3ccc(COC(=O)Nc4cc(OC(F)(F)F)ccc4F)cc3C2=O)C(=O)N1` (centres unmarked) [Compound 345, (2-(2,6-dioxopiperidin-3-yl)-3-oxoisoindolin-5-yl)methyl(2-fluoro-5-(trifluoromethoxy)phenyl)carbamate], in experiment [1], the “tumor progression free probability” value is “significantly extended the probability that an animal remained tumor-free”. Moreover, in the experiment with N-Myc, the “N-Myc total protein levels, timecourse” value is reported as “downregulation of N-Myc total protein levels”. Besides, the “ssGSEA score, Myc gene set” value with Myc target genes (24 hours) is “significant downregulation of the Myc gene set”; with Myc target genes (six hours) it was “modest down regulation of the Myc gene set”.

Turning to `Cc1ccc(NC(=O)NCc2ccc3c(c2)C(=O)N(C2CCC(=O)NC2=O)C3)cc1Cl` (centres unmarked) [Compound 8], the “induction of death (viability normalized to DMSO)” value in experiment [2] is recorded as “did induce death”.
